Our source for the MIC values is DBAASP.

≈ marks a conversion by molar mass, not a printed value.

Test systems include Staphylococcus sciuri; Aerococcus viridans; Rothia nasimurium; Pseudomonas aeruginosa; Escherichia coli O111; Klebsiella pneumoniae; Bacillus cereus AS1.1846; Escherichia coli D22; Escherichia coli D31; Fusarium haematococcum; Pediococcus acidilactici; Enterobacter cloacae; Ascochyta pisi; Bacillus megaterium; Escherichia coli 1106; Fusarium culmorum; Micrococcus luteus; Salmonella typhimurium; Alternaria brassicicola; Neurospora crassa; Bacillus subtilis; Fusarium oxysporum; Trichoderma viride; Botrytis cinerea.

Experiment in all cases: ≥ marks a high value that may be exact or a test limit, other limits are often not marked, values filed in µg/mL are converted to µM
For test [1], the system named is Listeria monocytogenes ATCC 19111.
Test [2] relates to Pseudomonas aeruginosa ATCC 27853.
Test [3] concerns Pseudomonas aeruginosa NCDC 0105.
Test [4] has as its system Staphylococcus aureus NCDC 0111.
For test [5], the system named is Salmonella enterica subsp. enterica serovar Typhimurium ATCC 14028.
Test [6] concerns Bacillus cereus NCDC 0240.
Test [7] relates to Escherichia coli MTCC 0723.
Test [8] has as its system Staphylococcus aureus ATCC 29213.
Test [9] concerns Acinetobacter johnsonii NCDC 0072.
For test [10], the system named is Escherichia coli ATCC 25922.
The subject of test [11] is Salmonella enterica subsp. enterica serovar Enteritidis CICC 21527.
Test [12] concerns Clostridium sporogenes CICC 10385.
Test [13] deals with Geobacillus stearothermophilus CICC 20139.
In test [14] the test system is Bacillus pumilus CMCC 63202.
The test system of test [15] is Bacillus megaterium CICC 10448.
Test [16] has as its system Salmonella enterica subsp. enterica serovar Paratyphi A CICC 21501.
Test [17] deals with Micrococcus luteus CMCC 28000.
Test [18] concerns Salmonella typhimurium CMCC 51005.
Test [19] has as its system Shigella flexneri CMCC 51571.
For test [20], the system named is Pseudomonas fluorescens AS1.1802.
The subject of test [21] is Serratia marcescens CICC 10187.
Test [22] concerns Paenibacillus polymyxa CGMCC 4314.
For test [23], the system named is Proteus mirabilis CMCC 49005.
The subject of test [24] is Salmonella enterica subsp. enterica serovar Paratyphi B CICC 21495.
Test [25] concerns Bacillus subtilis ATCC 9943.
In test [26] the test system is Alicyclobacillus acidoterrestris CICC 10374.
Test [27] has as its system Clostridioides difficile CICC 22951.
The subject of test [28] is Clostridium perfringens CICC 22949.
In test [29] the test system is Staphylococcus aureus CMCC 26003.
For test [30], the system named is Enterococcus faecalis V583.
The subject of test [31] is Pectobacterium carotovorum.

What is called MIC is the lowest concentration that inhibits growth of the organism. Low readings indicate a more susceptible organism, high ones a less susceptible organism. Turning to `CC[C@H](C)[C@H](NC(=O)[C@H](CO)NC(=O)[C@H](Cc1c[nH]c2ccccc12)NC(=O)[C@@H]1CCCN1C(=O)[C@@H](NC(=O)[C@H](C)N)[C@@H](C)CC)C(=O)N[C@@H](Cc1c[nH]c2ccccc12)C(=O)N[C@@H](Cc1c[nH]c2ccccc12)C(=O)N[C@@H](Cc1cnc[nH]1)C(=O)N[C@@H](CC(C)C)C(=O)N[C@@H](CC(C)C)C(=O)N[C@@H](Cc1ccccc1)C(=O)N[C@@H](CCCCN)C(=O)NCC(=O)O` [AIPWSIWWHLLFKG], the minimal inhibitory concentration (MIC) in test [1] is 1.5 µM (≈ 2.63 µg/mL); in [2], 200 µM (≈ 351 µg/mL); in test [3] it was at least 200 µM; in test [4] it was 12.5 µM (≈ 21.9 µg/mL); in [5], 3 µM (≈ 5.26 µg/mL); in test [6], at least 50 µM. Besides, the MIC in test [7] was at least 50 µM; in test [8], 0.8 µM (≈ 1.4 µg/mL); in [9], 25 µM (≈ 43.9 µg/mL).
For the compound `N[C@@H](CC(=O)O)C(=O)N[C@@H](CCC(=O)O)C(=O)N[C@@H](CC(=O)O)C(=O)N[C@@H](CC(=O)O)C(=O)N[C@@H](CC(=O)O)C(=O)O` [DEDDD], the MIC in [10] is 82.3 µM (≈ 50 µg/mL); against Staphylococcus sciuri, at least 82.3 µM; in the test on Aerococcus viridans, at least 32.9 µM; against Rothia nasimurium it was 16.5 µM (≈ 10 µg/mL); against Pseudomonas aeruginosa, 82.3 µM (≈ 50 µg/mL); in [8], 16.5 µM (≈ 10 µg/mL). Also, the values for the minimum inhibitory concentration (MIC) against Escherichia coli O111 and against Klebsiella pneumoniae were at least 82.3 µM and 82.3 µM (≈ 50 µg/mL), respectively.
As for `CSCC[C@H](NC(=O)[C@H](CCCCN)NC(=O)[C@H](CCC(N)=O)NC(=O)[C@H](Cc1c[nH]c2ccccc12)NC(=O)[C@@H](N)Cc1ccccc1)C(=O)N[C@@H](CO)C(=O)N[C@@H](Cc1ccccc1)C(=O)N[C@@H](C)C(=O)O` [FWQKMSFA], the minimum inhibitory concentration (MIC) stood at 15.3 µM (≈ 16 µg/mL) against Bacillus cereus AS1.1846; 15.3 µM (≈ 16 µg/mL) in test [11]; 61.3 µM (≈ 64 µg/mL) in test [10]; 30.6 µM (≈ 32 µg/mL) in [12]; 30.6 µM (≈ 32 µg/mL) in test [13]; 15.3 µM (≈ 16 µg/mL) in test [14]. Also, the minimal inhibitory concentration (MIC) amounted to 15.3 µM (≈ 16 µg/mL) in test [15]; 15.3 µM (≈ 16 µg/mL) in test [16]; 15.3 µM (≈ 16 µg/mL) in test [17]; 30.6 µM (≈ 32 µg/mL) in test [18]; 30.6 µM (≈ 32 µg/mL) in [19]; 15.3 µM (≈ 16 µg/mL) in test [20]. Moreover, the MIC in test [21], in [22], in test [23], in [24], in test [25] and in [26] was 15.3 µM (≈ 16 µg/mL) throughout. Besides, the minimum inhibitory concentration (MIC) turned out to be 30.6 µM (≈ 32 µg/mL) in test [27], 30.6 µM (≈ 32 µg/mL) in [28] and 15.3 µM (≈ 16 µg/mL) in test [29].
For the compound `CC[C@H](C)[C@H](N)C(=O)N[C@H](C(=O)N[C@@H](CO)C(=O)N[C@@H](CO)C(=O)N[C@@H](CCSC)C(=O)N[C@@H](Cc1ccccc1)C(=O)N[C@H](C(=O)N[C@@H](CO)C(=O)N[C@@H](C)C(=O)O)C(C)C)C(C)C` [IVSSMFVSA], the MIC in [30] was at least 133 µM.
`CC[C@H](C)[C@H](NC(=O)[C@@H](NC(=O)[C@@H]1CCCN1C(=O)[C@@H](NC(=O)[C@@H]1CCCN1C(=O)[C@@H](N)CCCCN)C(C)C)[C@@H](C)CC)C(=O)N[C@@H](Cc1ccc(O)cc1)C(=O)N[C@H]1CSSC[C@@H](C(=O)N[C@@H](CCC(N)=O)C(=O)N[C@@H](CCCN=C(N)N)C(=O)N[C@@H](CCSC)C(=O)O)NC(=O)[C@H](CCCCN)NC(=O)CNC(=O)[C@H]([C@@H](C)O)NC(=O)[C@H](CCCN=C(N)N)NC(=O)[C@H](CCCN=C(N)N)NC(=O)[C@H](CC(N)=O)NC1=O` [KPVPIIYCNRRTGKCQRM]: the MIC in the test on Escherichia coli D22 amounted to 0.424 µM (≈ 0.917 µg/mL); against Escherichia coli D31 it was 0.424 µM (≈ 0.917 µg/mL); with Fusarium haematococcum, 7.07 µM (≈ 15.3 µg/mL); in the test on Pediococcus acidilactici, 28.3 µM (≈ 61.1 µg/mL); against Enterobacter cloacae, 1.73 µM (≈ 3.74 µg/mL); in [31], 28.3 µM (≈ 61.1 µg/mL). Further, the minimal inhibitory concentration (MIC) in the test on Aerococcus viridans turned out to be 0.849 µM (≈ 1.83 µg/mL); in the test on Ascochyta pisi it was 14.1 µM (≈ 30.6 µg/mL); in the test on Bacillus megaterium, 3.54 µM (≈ 7.64 µg/mL); with Pseudomonas aeruginosa, 28.3 µM (≈ 61.1 µg/mL); against Escherichia coli 1106, 0.849 µM (≈ 1.83 µg/mL); against Fusarium culmorum, 7.07 µM (≈ 15.3 µg/mL). Moreover, the minimal inhibitory concentration (MIC) against Micrococcus luteus was determined as 1.73 µM (≈ 3.74 µg/mL); against Salmonella typhimurium, 1.73 µM (≈ 3.74 µg/mL); in the test on Alternaria brassicicola, 3.54 µM (≈ 7.64 µg/mL); in the test with Neurospora crassa, 3.54 µM (≈ 7.64 µg/mL); against Bacillus subtilis, 28.3 µM (≈ 61.1 µg/mL); against Fusarium oxysporum, 28.3 µM (≈ 61.1 µg/mL). For the same compound, the MIC in the test on Klebsiella pneumoniae amounted to 1.73 µM (≈ 3.74 µg/mL); in the test with Trichoderma viride it was 3.54 µM (≈ 7.64 µg/mL); against Botrytis cinerea, 1.73 µM (≈ 3.74 µg/mL).
